In brackets after ≈: the same amount, converted by molar mass.
Experiments:
[1] = Kinetic solubility in PBS at pH 7.4 by chemiluminescent nitrogen detection assay
[2] = biological target: T1, NAD-dependent protein deacetylase sirtuin-2 (Homo sapiens, UniProt Q8IXJ6); test: Inhibition of His-tagged SIRT2 (1 to 389) (unknown origin)-mediated deacetylation of Ac-RHKKAcW-NH2 substrate incubated for 20 mins prior to substrate addition measured after 30 mins by mass spectrophotometric analysis
T1 sequence (Q8IXJ6 whole entry): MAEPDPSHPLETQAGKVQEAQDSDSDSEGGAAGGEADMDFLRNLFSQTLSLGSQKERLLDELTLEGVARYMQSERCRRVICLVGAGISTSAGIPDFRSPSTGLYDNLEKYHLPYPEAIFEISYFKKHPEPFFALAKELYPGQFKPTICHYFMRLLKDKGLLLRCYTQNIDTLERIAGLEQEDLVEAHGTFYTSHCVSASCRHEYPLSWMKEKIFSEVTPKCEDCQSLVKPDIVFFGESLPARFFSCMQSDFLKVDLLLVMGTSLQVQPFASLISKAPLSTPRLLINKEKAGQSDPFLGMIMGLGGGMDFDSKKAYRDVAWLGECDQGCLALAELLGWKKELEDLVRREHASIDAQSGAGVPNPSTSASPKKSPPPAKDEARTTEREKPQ

[3] = biological target: T2, NAD-dependent protein deacetylase sirtuin-3, mitochondrial (Homo sapiens, UniProt Q9NTG7); test: Inhibition of human His-tagged SIRT3 (102 to 399) expressed in Escherichia coli BL21(DE3) assessed as inhibition of deacetylation of Ac-RHKKAcW-NH2 substrate preincubated for 20 mins measured after 30 mins by mass spectrophotometric analysis
T2 sequence (Q9NTG7 whole entry): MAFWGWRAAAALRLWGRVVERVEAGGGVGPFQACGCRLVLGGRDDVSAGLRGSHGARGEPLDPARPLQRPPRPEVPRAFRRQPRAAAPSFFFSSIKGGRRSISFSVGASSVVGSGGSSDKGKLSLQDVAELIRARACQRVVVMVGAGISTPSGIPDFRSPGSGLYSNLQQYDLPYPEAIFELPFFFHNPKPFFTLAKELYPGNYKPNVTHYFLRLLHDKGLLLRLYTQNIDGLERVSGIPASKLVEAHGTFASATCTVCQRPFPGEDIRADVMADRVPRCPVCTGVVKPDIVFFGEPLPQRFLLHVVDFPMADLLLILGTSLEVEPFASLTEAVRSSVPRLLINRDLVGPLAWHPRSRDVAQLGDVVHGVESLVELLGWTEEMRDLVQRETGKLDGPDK

[4] = biological target: T3, NAD-dependent protein deacetylase sirtuin-1 (Homo sapiens, UniProt Q96EB6); test: Inhibition of His-tagged SIRT1 (1 to 747) (unknown origin)-mediated deacetylation of Ac-RHKKAcW-NH2 substrate preincubated for 20 mins measured after 30 mins by mass spectrophotometric analysis
T3 sequence (Q96EB6 whole entry): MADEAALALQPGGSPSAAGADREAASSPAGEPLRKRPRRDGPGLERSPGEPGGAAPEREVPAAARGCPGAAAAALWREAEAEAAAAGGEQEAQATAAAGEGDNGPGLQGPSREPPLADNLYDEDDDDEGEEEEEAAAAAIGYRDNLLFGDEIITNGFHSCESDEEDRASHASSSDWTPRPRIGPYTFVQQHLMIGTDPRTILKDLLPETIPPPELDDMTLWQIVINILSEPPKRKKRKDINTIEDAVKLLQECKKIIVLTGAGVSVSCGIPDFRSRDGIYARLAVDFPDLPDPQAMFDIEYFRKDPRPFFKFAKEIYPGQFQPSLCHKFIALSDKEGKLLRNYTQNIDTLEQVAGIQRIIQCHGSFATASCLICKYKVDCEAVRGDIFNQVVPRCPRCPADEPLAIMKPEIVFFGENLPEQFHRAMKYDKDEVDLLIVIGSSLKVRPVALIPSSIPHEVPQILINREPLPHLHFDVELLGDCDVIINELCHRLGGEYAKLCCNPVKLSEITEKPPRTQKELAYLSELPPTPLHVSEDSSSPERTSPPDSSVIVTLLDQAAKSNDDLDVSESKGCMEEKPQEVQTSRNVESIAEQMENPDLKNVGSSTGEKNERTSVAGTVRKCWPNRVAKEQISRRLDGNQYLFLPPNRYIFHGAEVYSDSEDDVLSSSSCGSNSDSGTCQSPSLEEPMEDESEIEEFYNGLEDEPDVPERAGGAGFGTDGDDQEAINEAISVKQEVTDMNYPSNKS

[5] = Intrinsic clearance in human liver microsomes measured per mg of protein; type: ADME, Microsome; conditions: read-out: CLH
Cytochrome P450 2C19 = Cytochrome P450 2C19 (Homo sapiens, UniProt P33261); test: Inhibition of CYP2C19 (unknown origin); type: ADME
Sequence of Cytochrome P450 2C19 (P33261 whole entry): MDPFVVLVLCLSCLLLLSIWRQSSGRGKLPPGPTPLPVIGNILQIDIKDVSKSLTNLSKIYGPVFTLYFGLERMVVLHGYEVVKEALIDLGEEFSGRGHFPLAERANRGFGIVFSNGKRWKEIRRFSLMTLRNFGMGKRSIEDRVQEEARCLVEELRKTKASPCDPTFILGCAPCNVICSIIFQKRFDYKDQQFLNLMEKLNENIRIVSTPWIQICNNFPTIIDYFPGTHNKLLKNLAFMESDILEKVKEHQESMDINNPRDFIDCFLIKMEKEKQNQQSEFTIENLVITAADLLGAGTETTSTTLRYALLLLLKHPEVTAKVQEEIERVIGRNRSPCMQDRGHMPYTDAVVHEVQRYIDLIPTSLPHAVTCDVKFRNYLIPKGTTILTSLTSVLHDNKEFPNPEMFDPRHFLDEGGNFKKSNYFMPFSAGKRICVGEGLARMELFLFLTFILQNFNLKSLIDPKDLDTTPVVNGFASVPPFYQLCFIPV

Cytochrome P450 1A2 = biological target: T4, Cytochrome P450 1A2 (Homo sapiens, UniProt P05177); test: Inhibition of CYP1A2 (unknown origin); type: ADME
T4 sequence (P05177 whole entry): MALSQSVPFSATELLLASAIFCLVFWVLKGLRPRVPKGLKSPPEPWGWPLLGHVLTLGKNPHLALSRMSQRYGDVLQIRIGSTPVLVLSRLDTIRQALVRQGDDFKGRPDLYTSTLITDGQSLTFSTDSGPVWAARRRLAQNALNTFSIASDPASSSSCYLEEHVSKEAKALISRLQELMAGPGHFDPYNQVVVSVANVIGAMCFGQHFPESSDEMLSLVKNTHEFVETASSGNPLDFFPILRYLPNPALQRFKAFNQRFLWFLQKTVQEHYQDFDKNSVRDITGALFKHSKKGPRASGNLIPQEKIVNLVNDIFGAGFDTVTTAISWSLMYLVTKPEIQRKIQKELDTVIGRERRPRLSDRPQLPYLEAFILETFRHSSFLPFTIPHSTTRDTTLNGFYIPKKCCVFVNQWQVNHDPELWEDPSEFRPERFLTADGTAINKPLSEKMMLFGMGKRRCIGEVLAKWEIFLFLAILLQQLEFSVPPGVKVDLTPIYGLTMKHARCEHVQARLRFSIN

[6] = Intrinsic clearance in mouse liver microsomes measured per mg of protein; type: ADME, Microsome; conditions: read-out: CLH
Cytochrome P450 2D6 = Cytochrome P450 2D6 (Homo sapiens, UniProt P10635); test: Inhibition of CYP2D6 (unknown origin); type: ADME
Sequence of Cytochrome P450 2D6 (P10635 whole entry): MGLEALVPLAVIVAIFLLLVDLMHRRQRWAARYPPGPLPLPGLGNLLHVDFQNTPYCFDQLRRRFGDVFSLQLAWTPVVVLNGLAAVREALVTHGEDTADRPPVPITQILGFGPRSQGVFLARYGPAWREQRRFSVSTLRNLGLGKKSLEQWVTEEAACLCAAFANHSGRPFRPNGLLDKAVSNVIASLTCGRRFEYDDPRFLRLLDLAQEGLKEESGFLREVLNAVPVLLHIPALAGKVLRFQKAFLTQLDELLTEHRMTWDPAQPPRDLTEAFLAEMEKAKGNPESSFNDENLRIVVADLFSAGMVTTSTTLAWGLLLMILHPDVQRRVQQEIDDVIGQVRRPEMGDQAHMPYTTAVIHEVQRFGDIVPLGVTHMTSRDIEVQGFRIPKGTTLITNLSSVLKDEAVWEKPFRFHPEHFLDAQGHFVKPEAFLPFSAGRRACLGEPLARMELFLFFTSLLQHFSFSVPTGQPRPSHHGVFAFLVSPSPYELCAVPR

[7] = biological target: Voltage-gated inwardly rectifying potassium channel KCNH2 (Homo sapiens, UniProt Q12809); test: Inhibition of human ERG by dofetilide binding assay
Sequence of Voltage-gated inwardly rectifying potassium channel KCNH2 (Q12809 whole entry): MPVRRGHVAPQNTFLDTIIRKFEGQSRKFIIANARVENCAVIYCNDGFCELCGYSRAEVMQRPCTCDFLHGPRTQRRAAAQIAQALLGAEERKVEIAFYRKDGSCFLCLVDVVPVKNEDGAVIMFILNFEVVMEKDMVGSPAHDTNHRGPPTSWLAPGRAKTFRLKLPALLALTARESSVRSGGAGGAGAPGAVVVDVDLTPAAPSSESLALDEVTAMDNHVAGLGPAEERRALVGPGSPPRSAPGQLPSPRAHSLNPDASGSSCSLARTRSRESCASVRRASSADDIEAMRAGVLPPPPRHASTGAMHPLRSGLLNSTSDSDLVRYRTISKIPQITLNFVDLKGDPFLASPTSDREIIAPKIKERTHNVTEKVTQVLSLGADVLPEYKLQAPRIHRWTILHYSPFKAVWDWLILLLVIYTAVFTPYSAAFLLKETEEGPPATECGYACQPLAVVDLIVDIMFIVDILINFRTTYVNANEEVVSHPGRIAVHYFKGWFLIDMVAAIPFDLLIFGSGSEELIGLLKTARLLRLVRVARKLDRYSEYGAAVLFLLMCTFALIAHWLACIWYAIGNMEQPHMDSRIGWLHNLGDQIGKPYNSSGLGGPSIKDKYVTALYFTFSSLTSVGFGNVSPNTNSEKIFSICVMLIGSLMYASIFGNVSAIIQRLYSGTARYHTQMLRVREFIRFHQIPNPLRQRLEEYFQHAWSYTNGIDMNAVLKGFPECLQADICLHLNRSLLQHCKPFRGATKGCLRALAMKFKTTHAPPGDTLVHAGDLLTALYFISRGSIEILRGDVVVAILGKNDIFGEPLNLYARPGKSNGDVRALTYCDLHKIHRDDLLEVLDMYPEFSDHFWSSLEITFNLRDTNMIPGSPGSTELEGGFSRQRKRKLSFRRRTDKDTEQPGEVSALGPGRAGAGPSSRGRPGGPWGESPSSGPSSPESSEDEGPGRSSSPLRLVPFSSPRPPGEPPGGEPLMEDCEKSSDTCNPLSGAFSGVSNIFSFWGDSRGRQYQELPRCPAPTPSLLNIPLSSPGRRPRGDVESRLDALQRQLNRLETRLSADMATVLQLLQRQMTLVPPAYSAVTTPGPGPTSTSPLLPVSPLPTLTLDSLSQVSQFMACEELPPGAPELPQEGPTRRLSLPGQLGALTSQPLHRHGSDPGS

Cytochrome P450 3A4 = Cytochrome P450 3A4 (Homo sapiens, UniProt P08684); test: Inhibition of CYP3A4 (unknown origin); type: ADME
Sequence of Cytochrome P450 3A4 (P08684 whole entry): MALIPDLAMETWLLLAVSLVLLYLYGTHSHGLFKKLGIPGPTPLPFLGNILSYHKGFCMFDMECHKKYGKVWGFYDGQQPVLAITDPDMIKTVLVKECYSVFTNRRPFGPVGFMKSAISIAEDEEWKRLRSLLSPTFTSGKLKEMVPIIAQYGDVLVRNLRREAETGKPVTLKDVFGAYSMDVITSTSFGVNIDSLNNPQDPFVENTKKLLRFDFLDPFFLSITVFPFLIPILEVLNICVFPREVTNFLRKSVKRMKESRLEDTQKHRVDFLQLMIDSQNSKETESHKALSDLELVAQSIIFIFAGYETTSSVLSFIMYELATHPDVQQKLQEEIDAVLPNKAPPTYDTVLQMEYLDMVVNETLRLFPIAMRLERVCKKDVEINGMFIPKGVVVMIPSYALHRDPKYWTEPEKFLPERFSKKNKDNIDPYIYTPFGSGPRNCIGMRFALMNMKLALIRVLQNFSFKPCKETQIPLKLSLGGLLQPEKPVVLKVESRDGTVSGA

[8] = biological target: T3, NAD-dependent protein deacetylase sirtuin-1; test: Inhibition of GST-tagged SIRT1 (unknown origin) using KI177 as substrate after 1 hr by spectrophotometric analysis
[9] = biological target: T2, NAD-dependent protein deacetylase sirtuin-3, mitochondrial; test: Inhibition of His-tagged SIRT3 (unknown origin) using KI179 as substrate after 1 hr by spectrophotometric analysis

SMILES | solubility kinetic [1] | IC50 [2] | IC50 [4] | further results
CS(=O)(=O)NCCC1CCN(c2ncnc3cc(C(N)=O)sc23)CC1 | – | 1.1 nM | – | –
CC(C)(C)C(=O)NCCC1CCN(c2ncnc3cc(C(=O)O)sc23)CC1 | – | > 50000 nM | > 50000 nM | –
CC(C)(C)OC(=O)NCCC1CCN(c2ncnc3cc(C(N)=O)sc23)CC1 | – | 5.4 nM | – | –
CCCCC[C@H]1CC(=O)c2cc(Cl)cc(Br)c2O1 | – | – | – | IC50 [8]: > 200000 nM; IC50 [9]: > 200000 nM
NC(=O)c1cc2ncnc(N3CCC(CCNC(=O)c4cccs4)CC3)c2s1 | – | 6.5 nM | 5.8 nM | –
CCNC(=O)c1ccc(C(=O)NCCC2CCN(c3ncnc4cc(C(N)=O)sc34)CC2)s1 | 9 µM (≈ 4.38 µg/mL) | – | – | –

Now from value to compound, other results behind:

solubility kinetic [1] | IC50 [2] | IC50 [4] | SMILES | further results
65 µM (≈ 31.7 µg/mL) | 4.8 nM | – | CCNC(=O)c1ccc(C(=O)NCCN2CCN(c3ncnc4cc(C(N)=O)sc34)CC2)s1 | –
19 µM (≈ 9.13 µg/mL) | 1.3 nM | 5.3 nM | CCNC(=O)c1cccc(C(=O)NCCC2CCN(c3ncnc4cc(C(N)=O)sc34)CC2)c1 | IC50 [3]: 4.9 nM
297 µM (≈ 116 µg/mL) | – | – | CC(C)(C)C(=O)NCCC1CCN(c2ncnc3cc(C(N)=O)sc23)CC1 | microsomal CLint [5]: 15.8 µL/min/mg; IC50 (Cytochrome P450 2C19): > 50000 nM; IC50 (Cytochrome P450 1A2): > 50000 nM; microsomal CLint [6]: 12.7 µL/min/mg; IC50 (Cytochrome P450 2D6): > 50000 nM; IC50 [7]: > 50000 nM; IC50 (Cytochrome P450 3A4): > 50000 nM
– | 1.8 nM | 6.7 nM | CC(C)(C)OC(=O)c1ccc(C(=O)NCCC2CCN(c3ncnc4cc(C(N)=O)sc34)CC2)s1 | –
220 µM (≈ 106 µg/mL) | – | – | CCNC(=O)c1cccc(C(=O)NCCN2CCN(c3ncnc4cc(C(N)=O)sc34)CC2)c1 | –
– | 4.4 nM | – | NC(=O)c1cc2ncnc(N3CCC(CCNC(=O)c4ccc(C(=O)O)s4)CC3)c2s1 | –

— ChEMBL document CHEMBL2331260, “Discovery of thieno[3,2-d]pyrimidine-6-carboxamides as potent inhibitors of SIRT1, SIRT2, and SIRT3” (J Med Chem, 2013)
